ChEMBL document CHEMBL1201862, “PubChem BioAssay data set” (2004)
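Each compound was tested at five concentrations against cells in 96-well plates for 48 hours. GI50 is the concentration that inhibits growth by half.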 Activity calls are given as the source filed them. No stated cut-off is given here; in the data, active = GI50 up to about 1.1 µM and inactive = higher. Where a SMILES comes first, the peptide text is derived from it. Bridges are numbered along the chain shown (N, C = ends). [ ]: non-standard residue; d: D form. The star is where a group is joined. ξ: configuration not given here. X28 = O=C(/C=C/C=C/C=C/C=C/C=C/C(=O)*)NC1=C(O)CCC1=O; NMeA = CN[C@@H](C)C(=O)O; ξF = NC(Cc1ccccc1)C(=O)O; ξA = CC(N)C(=O)O

Legend:
Experiment in all cases: DTP human tumour cell line panel, 48 h
SK-MEL-28 = system: SK-MEL-28
NCI/ADR-RES = system: NCI/ADR-RES
ACHN = system: ACHN
OVCAR-3 = system: OVCAR-3
UACC-62 = system: UACC-62
NCI-H460 = system: NCI-H460
U-251 = system: U-251
SK-OV-3 = system: SK-OV-3
PC-3 = system: PC-3
SN12C = system: SN12C
NCI-H226 = system: NCI-H226
HCC 2998 = system: HCC 2998
786-0 = system: 786-0
K562 = system: K562
NCI-H522 = system: NCI-H522
EKVX = system: EKVX
CAKI-1 = system: CAKI-1
DU-145 = system: DU-145
CCRF-CEM = system: CCRF-CEM
MCF7 = system: MCF7
SF-539 = system: SF-539
Malme-3M = system: Malme-3M
HCT-116 = system: HCT-116
SNB-75 = system: SNB-75
SR = system: SR
MOLT-4 = system: MOLT-4
RXF 393 = system: RXF 393
SNB-19 = system: SNB-19
SK-MEL-2 = system: SK-MEL-2
OVCAR-5 = system: OVCAR-5
RPMI-8226 = system: RPMI-8226
KM12 = system: KM12
MDA-MB-435 = system: MDA-MB-435
SF-268 = system: SF-268
M14 = system: M14
HOP-62 = system: HOP-62
LOX IMVI = system: LOX IMVI
HT-29 = system: HT-29
NCI-H23 = system: NCI-H23
COLO 205 = system: COLO 205
T47D = system: T47D
HOP-92 = system: HOP-92
MDA-N = system: MDA-N
OVCAR-4 = system: OVCAR-4
SF-295 = system: SF-295
A549 = system: A549
MDA-MB-231 = system: MDA-MB-231
OVCAR-8 = system: OVCAR-8
UACC-257 = system: UACC-257
HL-60 = system: HL-60
TK-10 = system: TK-10
UO-31 = system: UO-31
BT-549 = system: BT-549
SW-620 = system: SW-620
IGROV-1 = system: IGROV-1
Hs-578T = system: Hs-578T
SK-MEL-5 = system: SK-MEL-5
HCT-15 = system: HCT-15

Measured: GI50

O=C1OC(C2Cc3ccccc3C2=O)c2ccccc21 (stereo not drawn)
inactive: SK-MEL-28 > 100 µM | NCI/ADR-RES > 100 µM | ACHN > 100 µM | OVCAR-3 > 100 µM | UACC-62 > 100 µM | NCI-H460 > 100 µM | U-251 > 100 µM | SK-OV-3 > 100 µM | PC-3 > 100 µM | SN12C > 100 µM | NCI-H226 > 100 µM | HCC 2998 > 100 µM | 786-0 > 100 µM | K562 > 100 µM | NCI-H522 > 100 µM | EKVX > 100 µM | CAKI-1 > 100 µM | DU-145 > 100 µM | CCRF-CEM > 100 µM | MCF7 > 100 µM | SF-539 > 100 µM | Malme-3M > 100 µM | HCT-116 > 100 µM | SNB-75 > 100 µM | SR > 100 µM | MOLT-4 > 100 µM | RXF 393 > 100 µM | SNB-19 > 100 µM | SK-MEL-2 > 100 µM | OVCAR-5 > 100 µM | RPMI-8226 > 100 µM | KM12 > 100 µM | MDA-MB-435 > 100 µM | SF-268 > 100 µM | M14 > 100 µM | HOP-62 > 100 µM | LOX IMVI 99.1 µM | HT-29 26.1 µM | NCI-H23 > 100 µM | COLO 205 > 100 µM | T47D > 100 µM | HOP-92 > 100 µM | MDA-N > 100 µM | OVCAR-4 > 100 µM | SF-295 > 100 µM | A549 > 100 µM | MDA-MB-231 > 100 µM | OVCAR-8 > 100 µM | UACC-257 > 100 µM | HL-60 > 100 µM | TK-10 > 100 µM | UO-31 > 100 µM | BT-549 > 100 µM | SW-620 > 100 µM | IGROV-1 > 100 µM | Hs-578T > 100 µM | SK-MEL-5 > 100 µM
> 100 µM: HCT-15

CC1NC(=O)[C@H](C)N(C)C(=O)[C@@H]2CCCN2C(=O)[C@@H](NC(=O)C(Cc2ccccc2)NC(=O)/C=C/C=C/C=C/C=C/C=C/C(=O)NC2=C(O)CCC2=O)COC(=O)[C@@H]2CCCN2C1=O (stereo partly drawn) (X28-[ξF]SP[NMeA][ξA]P; ester 2-C)
inactive: SK-MEL-28 > 100 µM | NCI/ADR-RES > 100 µM | ACHN > 100 µM | OVCAR-3 > 100 µM | UACC-62 > 100 µM | NCI-H460 > 100 µM | U-251 > 100 µM | SK-OV-3 > 100 µM | PC-3 > 100 µM | SN12C > 100 µM | HCC 2998 > 100 µM | 786-0 > 100 µM | K562 > 100 µM | NCI-H522 > 100 µM | EKVX 96.4 µM | CAKI-1 40.4 µM | DU-145 89.3 µM | CCRF-CEM > 100 µM | MCF7 > 100 µM | SF-539 > 100 µM | Malme-3M > 100 µM | HCT-116 > 100 µM | SNB-75 64.3 µM | SR 79.3 µM | RXF 393 35.5 µM | SNB-19 > 100 µM | SK-MEL-2 > 100 µM | OVCAR-5 > 100 µM | RPMI-8226 > 100 µM | KM12 58.9 µM | MDA-MB-435 > 100 µM | SF-268 > 100 µM | M14 > 100 µM | HOP-62 48.1 µM | LOX IMVI > 100 µM | HT-29 > 100 µM | NCI-H23 > 100 µM | COLO 205 > 100 µM | T47D > 100 µM | HOP-92 78.2 µM | MDA-N > 100 µM | OVCAR-4 > 100 µM | SF-295 > 100 µM | A549 > 100 µM | MDA-MB-231 22.7 µM | UACC-257 > 100 µM | HL-60 > 100 µM | TK-10 30.3 µM | UO-31 29.2 µM | BT-549 > 100 µM | SW-620 > 100 µM | IGROV-1 > 100 µM | Hs-578T 59.2 µM | SK-MEL-5 > 100 µM
> 100 µM: HCT-15
